Data: patent publication US8178506B2, “Oligomeric compounds and compositions for use in modulation of small non-coding RNAs” (Regulus Therapeutics Inc., priority 2003, dated 2012)
Entries after “also recorded” stand apart in the source; their conditions may differ. In the oligonucleotide strings, read from the 5' end, every base follows the letter of its sugar. An asterisk marks phosphorothioate; unmarked linkages are phosphodiester. Other units and linkages are bracketed, terminal groups are in braces. A string of capitals states the bases alone. e = 2'-O-(2-methoxyethyl) (MOE); [5mC] = 5-methylcytosine

Tests used:
mir-15a pri-miRNA = mir-15a pri-miRNA expression in T47D cells (real-time RT-PCR); type: cell-based, human; conditions: for levels of the mir-15a pri-miRNA molecule: 100 nM; for mir-15a pri-miRNA expression % UTC: real-time RT-PCR
Excerpt: The gapmer oligomeric compounds targeting the mir-15b and mir-15-a-1 mature miRNAs described above were also transfected into T47D cells according to standard procedures. In addition, uniform 2′-MOE and 2′-MOE gapmer oligomeric compounds targeting the mature mir-15a-1 and mir-15b miRNAs were also transfected into T47D cells, for analysis of their effects on mir-15a-1 and mir-15b pri-miRNA levels. The oligomeric compounds ISIS Number 327927 (SEQ ID NO: 345), a uniform 2′-MOE compound and ISIS Number 345391 (SEQ ID NO: 345), a 2′-MOE 5-10-7 gapmer compound, both target mir-15b. The oligomeric compounds ISIS Number 327951 (SEQ ID NO: 369), a uniform 2′-MOE compound, and ISIS Number 345411 (SEQ ID NO: 369), a 2′-MOE 5-10-7 gapmer compound, both target mir-15a-1. Oligomeric compounds ISIS Number 129686 ([…]; SEQ ID NO: 901), and ISIS Number 129691 ([…]; SEQ ID NO:902), both universal scrambled controls, as well as ISIS Number 116847 ([…]; SEQ ID NO: 844) targeting an unrelated gene, PTEN, were used as negative controls. ISIS Numbers 129686, 129691, and 116847 are phosphorothiated 2′-MOE 5-10-5 gapmers, and all cytosines are 5-methylcytosines. T47D cells (seeded in 12-well plates) were treated with these oligomeric compounds, and RNA was isolated from the treated cells by lysing in 1 mL TRIZOL™ (Invitrogen) and total RNA was prepared using the manufacturer's recommended protocols. To assess the effects of these compounds on expression of the mir-15a or mir-15b pri-miRNA molecules, real-time RT-PCR analysis was performed using either the primer/probe set specific for the mir-15a pri-miRNA molecule described above, or a primer probe set specific for the mir-15b pri-miRNA molecule: ISIS 339320 ([…]; SEQ ID NO: 903) was used as the forward primer for the mir-15b pri-miRNA, ISIS 339321 ([…] ACTGT; SEQ ID NO: 904) was used as the reverse primer for the mir-15b pri-miRNA, and ISIS 339322 ([…]; SEQ ID NO: 905) was used as the probe. Total RNA was quantified using RiboGreen™ RNA quantification reagent (Molecular Probes, Inc. Eugene, Oreg.), expression levels observed for each target were normalized to 5.8S rRNA, and values are expressed relative to the untreated control. Inhibition of expression of the mir15a or mir-15b pri-miRNA molecules upon treatment with these oligomeric compounds is was assessed and expressed as a percentage of RNA levels in untreated control cells.
Using the real-time RT-PCR methods described, the expression levels of the mir-15a pri-miRNA were compared in T47D cells treated with the nested series of uniform 2′-MOE oligomeric compounds, targeting and spanning the entire length of the mir-15a pri-miRNA. The region encompassing the mir-15a primary transcript (the complement of nucleotides 31603159 to 31603468 of GenBank Accession number NT—024524.13; AAATAATTATG […]) is incorporated herein as SEQ ID NO: 906. ISIS Number 356215 (SEQ ID NO: 879) targets a region flanking and immediately 5′ to the predicted 5′ Drosha cleavage site in the mir-15a pri-miRNA. ISIS Number 356218 (SEQ ID NO: 881) targets aregion in the loop of the mir-15a pri-miRNA. ISIS 356227 (SEQ ID NO: 883) targets a region flanking and immediately 3′ to the predicted 3′ Drosha cleavage site in the mir-15a pri-miRNA. Additionally, oligomeric compound ISIS 327951 (SEQ ID NO: 369), a uniform 2′-MOE compound targeting the mature mir-15a-1 miRNA, was tested for comparison. Oligomeric compounds ISIS 327901 (SEQ ID NO: 319) targeting the mature mir-143 miRNA; ISIS 129690, ([…]; SEQ ID NO: 907), a phosphorothioate 5-10-5 MOE gapmer used as a universal scrambled control; and ISIS 116847 ([…]; SEQ ID NO: 844), a uniform 5-10-52′-MOE gapmer targeting an unrelated gene, PTEN, were used as negative controls. Using the transfection methods previously described, T47D cells were treated with 100 nM of each of these oligomeric compounds. […]

PPARγ = PPARγ mRNA expression in adipocytes (real-time PCR); type: cell-based, human; conditions: adipocytes, 250 nM oligomeric compound, day nine post-transfection, relative to control (1.0); Table 16
HuVECs = experiment: Endothelial tube formation assay in HuVECs; conditions: 75 nM oligomeric compound, Table 58
preadipocytes = experiment: Caspase assay in preadipocytes; type: cell-based, human; conditions: untreated control set equal to 1.0
Excerpt: The effect of oligomeric compounds of the present invention targeting miRNAs was examined in preadipocytes (Zen-Bio, Inc., Research Triangle Park, N.C.) using the fluorometric caspase assay previously described in Example 11.

leptin = experiment: Leptin secretion by adipocytes (ELISA); type: cell-based, human; conditions: adipocytes, 250 nM oligomeric compound, day nine post-transfection, relative to control (1.0); Table 16
Procedure: Leptin secretion into the medium in which adipocytes are cultured is measured by protein ELISA. On day nine post-transfection, 96-well plates are coated with a monoclonal antibody to human leptin (R&D Systems, Minneapolis, Minn.) and left at 4° C. overnight. The plates are blocked with bovine serum albumin (BSA), and a dilution of the treated adipoctye medium is incubated in the plate at room temperature for approximately 2 hours. After washing to remove unbound components, a second monoclonal antibody to human leptin (conjugated with biotin) is added. The plate is then incubated with strepavidin-conjugated horse radish peroxidase (HRP) and enzyme levels are determined by incubation with 3, 3′,5,5′-tetramethlybenzidine, which turns blue when cleaved by HRP. The OD450 is read for each well, where the dye absorbance is proportional to the leptin concentration in the cell lysate.
Leptin is also a marker for differentiated adipocytes. In the adipocyte assay, leptin secretion into the media above the differentiated adipocytes was measured by protein ELISA. Cell growth, transfection and differentiation procedures were carried out as described for the Triglyceride accumulation assay (see below). On day nine post-transfection, 96-well plates were coated with a monoclonal antibody to human leptin (R&D Systems, Minneapolis, Minn.) and left at 4° C. overnight. The plates were blocked with bovine serum albumin (BSA), and a dilution of the media was incubated in the plate at RT for 2 hours. After washing to remove unbound components, a second monoclonal antibody to human leptin (conjugated with biotin) was added. The plate was then incubated with strepavidin-conjugated horseradish peroxidase (HRP) and enzyme levels are determined by incubation with 3, 3′, 5,5′-Tetramethlybenzidine, which turns blue when cleaved by HRP. The OD450 was read for each well, where the dye absorbance is proportional to the leptin concentration in the cell lysate. Results are expressed as a percent±standard deviation relative to transfectant-only controls.

adipocytes = experiment: Triglyceride accumulation assay in adipocytes; type: cell-based, human; conditions: adipocytes, 250 nM oligomeric compound, relative to control (1.0); Table 16
aP2 = aP2 mRNA expression in adipocytes (real-time PCR); type: cell-based, human; conditions: adipocytes, 250 nM oligomeric compound, day nine post-transfection, relative to control (1.0); Table 16
Glut4 = Glut4 mRNA expression in adipocytes (real-time PCR); type: cell-based, human; conditions: adipocytes, 250 nM oligomeric compound, day nine post-transfection, relative to control (1.0); Table 16
HSL = HSL mRNA expression in adipocytes (real-time PCR); type: cell-based, human; conditions: adipocytes, 250 nM oligomeric compound, day nine post-transfection, relative to control (1.0); Table 16

Row | Substance | levels of the mir-15a pri-miRNA molecule (mir-15a pri-miRNA) | mir-15a pri-miRNA expression % UTC (mir-15a pri-miRNA) | PPAR gamma (mRNA expression) (PPARγ) | % Activity Relative to UTC (tube formation) (HuVECs) | Fold Increase over UTC (caspase activity) (preadipocytes) | Leptin (secretion) (leptin) | TG (triglyceride accumulation) (adipocytes) | AP2 (mRNA expression) (aP2) | Glut4 (mRNA expression) (Glut4) | HSL (mRNA expression) (HSL)
1 | ISIS 356215: uniform 2′-MOE PS; SEQ ID NO: 879; region immediately 5′ to 5′ Drosha cleavage site of mir-15a pri-miRNA (antisense eT*eG*e[5mC]*eT*eA*e[5mC]*eT*eT*eT*eA*e[5mC]*eT*e[5mC]*e[5mC]*eA*eA*eG*eG*eT*eT) [uniform 2′-MOE PS; region immediately 5′ to 5′ Drosha cleavage site of mir-15a pri-miRNA] | stimulate an increase in levels of the mir-15a pri-miRNA molecule; also recorded: stimulate the greatest increases in expression of the mir-15a pri-miRNA | – | – | – | – | – | – | – | – | –
2 | 356232 (eA*eA*eA*eT*eA*eT*eA*eT*eT*eT*eT*e[5mC]*eT*eT*e[5mC]*eA*eG*eA*eA*eG) [compound 356232] | – | 631 % UTC | – | – | – | – | – | – | – | –
3 | ISIS 356218: uniform 2′-MOE PS; SEQ ID NO: 881; loop of the mir-15a pri-miRNA (antisense eT*eG*eG*e[5mC]*e[5mC]*eT*eG*e[5mC]*eA*e[5mC]*e[5mC]*eT*eT*eT*eT*e[5mC]*eA*eA*eA*eA) [uniform 2′-MOE PS; loop of the mir-15a pri-miRNA] | stimulate an increase in levels of the mir-15a pri-miRNA molecule | – | – | – | – | – | – | – | – | –
4 | ISIS 356229: uniform 2′-MOE PS; SEQ ID NO: 884; targets mir-15a pri-miRNA (antisense eA*eG*eA*eT*e[5mC]*eA*eG*eA*eT*e[5mC]*e[5mC]*eT*eT*eG*eT*eA*eT*eT*eT*eT) [uniform 2′-MOE PS; targets mir-15a pri-miRNA] | stimulate an increase in levels of the mir-15a pri-miRNA molecule | – | – | – | – | – | – | – | – | –
5 | 327930 (antisense eA*e[5mC]*eT*eA*eT*eA*e[5mC]*eA*eA*e[5mC]*e[5mC]*eT*e[5mC]*e[5mC]*eT*eA*e[5mC]*e[5mC]*eT*e[5mC]*eA) [compound 327930] | – | – | 0.98 | 88.9% | 1.4 fold over UTC | 0.95 | 0.97 | 0.86 | 1.01 | 0.89
6 | 327938 (antisense eA*eA*e[5mC]*eA*eA*eT*eA*e[5mC]*eA*eA*e[5mC]*eT*eT*eA*e[5mC]*eT*eA*e[5mC]*e[5mC]*eT*e[5mC]*eA) [compound 327938] | – | – | 0.90 | 96.3% | 1.0 fold over UTC | 1.35 | 1.05 | 0.86 | 0.80 | 0.85
7 | 327926 (antisense eA*e[5mC]*eT*eA*eT*eG*e[5mC]*eA*eA*e[5mC]*e[5mC]*eT*eA*e[5mC]*eT*eA*e[5mC]*e[5mC]*eT*e[5mC]*eT) [compound 327926] | – | – | 0.93 | 96.3% | 1.8 fold over UTC | 1.47 | 1.06 | 0.85 | 1.10 | 0.82
8 | ISIS 356232: uniform 2′-MOE PS; targets mir-15a pri-miRNA (antisense eA*eA*eA*eT*eA*eT*eA*eT*eT*eT*eT*e[5mC]*eT*eT*e[5mC]*eA*eG*eA*eA*eG) | stimulate an increase in levels of the mir-15a pri-miRNA molecule | – | – | – | – | – | – | – | – | –
9 | ISIS 356227: uniform 2′-MOE PS; SEQ ID NO: 883; region immediately 3′ to 3′ Drosha cleavage site of mir-15a pri-miRNA (antisense eT*e[5mC]*e[5mC]*eT*eT*eG*eT*eA*eT*eT*eT*eT*eT*eG*eA*eG*eG*e[5mC]*eA*eG) [uniform 2′-MOE PS; region immediately 3′ to 3′ Drosha cleavage site of mir-15a pri-miRNA] | stimulate an increase in levels of the mir-15a pri-miRNA molecule; also recorded: stimulate the greatest increases in expression of the mir-15a pri-miRNA | – | – | – | – | – | – | – | – | –
10 | 356231 (eT*eT*e[5mC]*eA*eG*eA*eA*eG*eA*eT*e[5mC]*eA*eG*eA*eT*e[5mC]*e[5mC]*eT*eT*eG) [compound 356231] | – | 811 % UTC | – | – | – | – | – | – | – | –
11 | 327942 (antisense e[5mC]*e[5mC]*eA*eT*e[5mC]*eT*eT*eT*eA*e[5mC]*e[5mC]*eA*eG*eA*e[5mC]*eA*eG*eT*eG*eT*eT) [compound 327942] | – | – | 0.87 | 74.1% | 1.0 fold over UTC | 2.03 | 0.85 | 0.82 | 0.66 | 0.79
